Measured values from patent US20200288710A1, “SUBSTITUTED SULPHONAMIDES FOR CONTROLLING ANIMAL PESTS” (BAYER CROPSCIENCE AKTIENGESELLSCHAFT, priority 2016, published 2020).

Columns and labels:
Type in all cases: in vivo
Meloidogyne incognita = Meloidogyne incognita test; details: 336 h, lettuce, after 14 days, read-out: nematicidal efficacy (formation of galls)
Protocol: Meloidogyne incognita Test Solvent: 125.0 parts by weight of acetone To produce a suitable active compound preparation, 1 part by weight of active compound is mixed with the stated amount of solvent and the concentrate is diluted with water to the desired concentration. Vessels are filled with sand, active compound solution, an egg/larvae suspension of the southern rootknot nematode (Meloidogyne incognita) and lettuce seeds. The lettuce seeds germinate and the plants develop. The galls develop on the roots. After 14 days, the nematicidal efficacy in % is determined by the formation of galls. 100% means that no galls were found; 0% means that the number of galls on the treated plants corresponds to the untreated control.

Myzus persicae [1] = experiment: Myzus persicae spray test (Chinese cabbage leaf discs); details: foliar, 120 h, 500 g/ha, after 5-6 days, read-out: efficacy
In short: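 Chinese cabbage leaf discs infested with all stages of green peach aphid were sprayed with compound formulated in acetone/DMF and emulsifier-containing water. Efficacy in % was scored after 5-6 days, with 100% meaning all aphids killed and 0% none killed.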

Myzus persicae [2] = experiment: Myzus persicae oral test; details: 120 h, 20 ppm, oral uptake, after 5 days, read-out: efficacy
In short: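 Compound dissolved in acetone, diluted in water, then mixed 50:150 μl with IPL41 insect medium (33%+15% sugar). Mixed-population green peach aphids feed through a parafilm seal on the solution; mortality scored as % efficacy after 5 days (100% = all killed).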

SMILES	pest or weed control at 20 ppm (Meloidogyne incognita) [%]	pest or weed control at 500 g/ha (Myzus persicae [1]) [%]	pest or weed control at 20 ppm (Myzus persicae [2]) [%]
Cc1ccccc1S(=O)(=O)NC(=O)c1cn(C)c(-c2c(F)cc(F)cc2F)n1 [Example 6]	100	100	
Cn1cc(C(=O)NS(=O)(=O)c2cccc(Cl)c2)nc1-c1c(F)cc(F)cc1F [Example 8]	100	90	
Cn1cc(C(=O)NS(=O)(=O)c2ccc(Cl)cc2)nc1-c1c(F)cc(F)cc1F [Example 9]	100	90	
CCOc1ccccc1S(=O)(=O)NC(=O)c1cn(C)c(-c2c(F)cccc2F)n1 [Example 16]	90	90	
COc1ccc(S(=O)(=O)NC(=O)c2cn(C)c(-c3ccccc3Cl)n2)cc1 [Example 34]	100	90	
COc1ccc(S(=O)(=O)NC(=O)c2cn(C)c(-c3c(F)cccc3F)n2)cc1 [Example 47]	100	90	
Cn1cc(C(=O)NS(=O)(=O)c2ccccc2)nc1-c1c(F)cccc1F [Example 48]	90	90	
CCS(=O)(=O)NC(=O)c1cn(C)c(-c2ccccc2Cl)n1 [Example 64]	90	90	
CCn1cc(C(=O)NS(C)(=O)=O)nc1-c1ccccc1Cl [Example 79]	90	100	
CCc1[nH]c(-c2ccc(F)cc2F)nc1C(=O)NS(=O)(=O)C(C)C [Example 123]	90	90	
CCc1[nH]c(-c2cccc(Br)c2)nc1C(=O)NS(=O)(=O)c1ccccc1C [Example 134]	90		100
Cc1ccccc1S(=O)(=O)NC(=O)c1cc(C)n(-c2c(F)cccc2F)n1 [Example 139]	90	90	
COCCS(=O)(=O)NC(=O)c1cn(C)c(-c2c(F)cccc2F)n1 [Example 141]	90		90
CC(C)CS(=O)(=O)NC(=O)c1cn(C)c(-c2c(F)cccc2F)n1 [Example 142]	90	100	
CC(C)S(=O)(=O)NC(=O)c1cn(C)c(-c2c(F)cccc2Cl)n1 [Example 149]	90	90	
Cc1ccc(S(=O)(=O)NC(=O)c2cn(C)c(-c3c(F)cccc3F)n2)cc1 [Example 175]	100	90	
Cn1cc(C(=O)NS(=O)(=O)c2ccc(Cl)c(Cl)c2)nc1-c1c(F)cccc1F [Example 187]	90		100
Cc1[nH]c(-c2c(F)cccc2F)nc1C(=O)NS(=O)(=O)c1ccccc1Cl [Example 192]	90		100
CC(C)S(=O)(=O)NC(=O)c1cn(C)c(-c2ccccc2Cl)n1 [Example 193]	90	100	
CCc1c(C(=O)NS(=O)(=O)c2ccccc2Cl)nc(-c2c(F)cccc2F)n1C [Example 197]	100	90	
CCc1c(C(=O)NS(=O)(=O)c2ccccc2C)nc(-c2c(F)cccc2F)n1C [Example 199]	90		100
CCc1cccc(OC)c1S(=O)(=O)NC(=O)c1cn(C)c(-c2c(F)cccc2F)n1 [Example 200]	100	100	
Cc1[nH]c(C(=O)NS(=O)(=O)C(C)C)nc1-c1ccccc1Cl [Example 202]	90		100
CCc1[nH]c(-c2ccc(F)c(F)c2)nc1C(=O)NS(=O)(=O)c1ccccc1C [Example 207]	90	90	
CC(C)c1ccccc1-c1nc(C(=O)NS(=O)(=O)c2ccccc2Cl)cn1C [Example 209]	90		90
COc1ccc(Cl)c(S(=O)(=O)NC(=O)c2cn(C)c(-c3ccccc3Cl)n2)c1 [Example 228]	100	100	
Cn1cc(C(=O)NS(=O)(=O)c2ccc(Cl)cc2)nc1-c1ccccc1Cl [Example 230]	100	100	
Cc1[nH]c(-c2cccc(Cl)c2)nc1C(=O)NS(=O)(=O)c1ccccc1Cl [Example 233]	90		100

SMILES	pest or weed control at 20 ppm (Meloidogyne incognita) [%]	pest or weed control at 500 g/ha (Myzus persicae [1]) [%]	pest or weed control at 20 ppm (Myzus persicae [2]) [%]
COc1ccc(Cl)c(S(=O)(=O)NC(=O)c2nc(-c3ccccc3Cl)[nH]c2C)c1 [Example 239]	90		100
Cc1ccccc1S(=O)(=O)NC(=O)c1cc(-c2ncccc2Cl)n(-c2ccccc2Cl)n1 [Example 265]	100		100
COc1cc(C(=O)NS(=O)(=O)c2ccccc2C)nn1-c1ccccc1Cl [Example 276]	100		100
COc1ccccc1S(=O)(=O)NC(=O)c1nc(-c2c(F)cccc2F)c(C)n1C [Example 310]	100	90	
CCOc1c(Cl)cccc1S(=O)(=O)NC(=O)c1cn(C)c(-c2c(F)cccc2F)n1 [Example 314]	90		100
Cn1cc(C(=O)NS(=O)(=O)c2cccc(F)c2Cl)nc1-c1c(F)cccc1F [Example 321]	90	100	
CC(C)CS(=O)(=O)NC(=O)c1cn(C)c(-c2c(F)cccc2Cl)n1 [Example 325]	90		100
CC(C)c1cccc(-c2nc(C(=O)NS(=O)(=O)c3ccccc3Br)cn2C)c1 [Example 330]	90		90
Cc1ccccc1S(=O)(=O)NC(=O)c1cn(C)c(-c2cccc(C(C)C)c2)n1 [Example 331]	90		100
CCOc1cccc(CC)c1S(=O)(=O)NC(=O)c1cn(C)c(-c2c(F)cccc2F)n1 [Example 335]	90	90	
Cn1cc(C(=O)NS(=O)(=O)c2ccc(Br)s2)nc1-c1c(F)cccc1F [Example 353]	90		90
Cn1cc(C(=O)NS(=O)(=O)c2cc(Cl)sc2Cl)nc1-c1c(F)cccc1F [Example 356]	90	90	
Cn1cc(C(=O)NS(=O)(=O)c2ccsc2)nc1-c1c(F)cccc1F [Example 357]	90	90	
CC(C)Sc1cccc(Cl)c1S(=O)(=O)NC(=O)c1cn(C)c(-c2c(F)cccc2F)n1 [Example 386]	90		100
COc1ccc(Cl)c(S(=O)(=O)NC(=O)c2c[nH]c(-c3c(F)cccc3F)n2)c1 [Example 411]	90		100
CCn1c(C(=O)NS(=O)(=O)c2ccccc2Cl)nc(-c2c(F)cccc2F)c1C [Example 414]	100		100
CCn1c(C(=O)NS(=O)(=O)c2ccccc2OC)nc(-c2c(F)cccc2F)c1C [Example 416]	90		90
O=C(NS(=O)(=O)C1CC1)c1cc(-c2ncccc2Cl)n(-c2ccccc2Cl)n1 [Example 456]	100		100
Cc1cccc(C)c1-c1nc(C(=O)NS(=O)(=O)c2ccccc2Cl)cn1C [Example 477]	90		90
CCc1ccccc1-c1nc(C(=O)NS(=O)(=O)c2ccccc2Cl)cn1C [Example 496]	100		90
CCc1ccccc1-c1nc(C(=O)NS(=O)(=O)c2ccccc2OC)cn1C [Example 498]	90		100
Cn1cc(C(=O)NS(=O)(=O)c2ccccc2Cl)nc1-c1cc(Cl)ccc1Cl [Example 511]	100		100
Cc1ccccc1S(=O)(=O)NC(=O)c1cn(C)c(-c2ccccc2[N+](=O)[O-])n1 [Example 525]	100		100
Cn1cc(C(=O)NS(=O)(=O)c2ccccc2Cl)nc1-c1ccccc1-c1ccccc1 [Example 532]	90		100
CCc1[nH]c(-c2ccc(Cl)cc2)nc1C(=O)NS(=O)(=O)c1ccccc1C [Example 590]	90		100
COc1ccc(Cl)c(S(=O)(=O)NC(=O)c2nc(-c3ccc(Cl)cc3)[nH]c2C)c1 [Example 618]	100		100
Cc1[nH]c(-c2ccccc2Cl)nc1C(=O)NS(=O)(=O)C(C)C [Example 625]	100		90
